According to patent US11931351B2, “(S)-3-[1-methylpyrrolidin-2-yl]pyridine, analogues thereof, precursors thereof, or its derivatives, for the use as a pharmaceutical in form of a parenteral administration and a process for the preparation of an injectable substance” (priority 2019, dated 2024):
Values after ≈ are worked out from the molar mass of the structure shown.

How the values were obtained:
H1N1 virus = details: 0,002 mg/kg each 24 hours; 24 hours after treatment; versus control group
[1] = after 72 h treatment, n=10 per group; compared to antimicrobians/antimycotics (group B) and no treatment (group C)
[2] = system: human PBLs (leukocytes of peripheral blood); details: MTT, 48 hours
Description: (§1) Thereby, cell viability was determined on the basis of the mitochondria-dependent reduction of MTT (3-[4,5-dimethyltiazol 2yl]-2,5-diphenyltetrazolium bromide) to formazan. […] Next cells were treated with 20 μl of MTT. After 3 hours of incubation at 37° C., the formazan blue formed in the cells was dissolved in 100 μl of SDS (sodium dodecylsulfate) for 3 hours in 37° C. The optical density was measured at 570 nm.
(§2) After the cytotoxicity tests LC50 (LC50-lethal concentration, 50%-dose required to kill half of the cells after a specified test duration) were estimated for each cell lines and PBLs (leukocytes of peripheral blood). Additionally for PBLs LC10 and LC5 were calculated.
(§3) On the basis of the results of MTT assay for human leukocytes the LC50, LC10 and LC5 were evaluated.

WI-38 cells [3] = details: WI-38, 96 hours incubation, MTT
A549 cells [4] = details: A549, 96 hours incubation, MTT
HS-683 cells [5] = details: HS-683, 96 hours incubation, MTT
IL-6 production = details: human PBLs; 1 mg/ml, 500 μg/ml, 300 μg/ml
WI-38 cells [6] = experiment: cells; details: Homo sapiens, WI-38, 96 h, read-out: concentration that inhibits 50% of the proliferation
A549 cells [7] = experiment: cells; details: Homo sapiens, A549, 96 h, read-out: concentration that inhibits 50% of the proliferation
HS-683 cells [8] = experiment: cells; details: Homo sapiens, Hs 683, 96 h, read-out: concentration that inhibits 50% of the proliferation
WI-38, A549 and HS 683 = experiment: cells; details: Homo sapiens, read-out: doses that inhibit 50% of cell proliferation (summary)
in vitro [9] = details: human, WI-38 cells (normal embryonic lung diploid cell line)
Description: (§4) In a further example cytotoxicity tests were performed with three different cell lines (FIG. 2a, 2b, 2c): • WI-38 (human diploid cell line from normal embryonic lung tissue) • A549 (human lung adenocarcinoma epithelial cell line) and • HS683 (human neuronal glioma cell line).
as §1
(§5) After the cytotoxicity tests LC50 (LC50-lethal concentration, 50%-dose required to kill half of the cells after a specified test duration) were estimated for each cell lines and PBLs (leukocytes of peripheral blood).

in vitro [10] = details: human, A549 cells (lung adenocarcinoma epithelial cell line)
Description: as §4, §1, §5

in vitro [11] = details: human, HS683 cells (neuronal glioma cell line)
Description: as §4, §1, §5

in vitro [12] = details: human, peripheral blood leukocytes (PBLs)
Description: as §1, §2, §3

[13] = background statement; cited from earlier work
[14] = background statement; cited from earlier work; remark: listed apart in the source

## CN1CCC[C@H]1c1cccnc1 [(S)-3-[1-Methylpyrrolidin-2-yl]pyridine]
H1N1 virus
  egg production of H1N1 infected chicken: began to lay off eggs
[1]
  healing effect on ulcer: increased healing effect
[2]
  LC5: 0.5 mg/mL
  LC10: 1000 µg/mL (≈ 6.16 mM)
WI-38 cells [3]
  concentration that inhibits 99% of the proliferation: 4.5 mg/mL
A549 cells [4]
  concentration that inhibits 99% of the proliferation: 5.5 mg/mL
HS-683 cells [5]
  concentration that inhibits 99% of the proliferation: 5.5 mg/mL
IL-6 production
  effect on IL-6 production: no effect
WI-38 cells [6]
  IC50: 1000 µg/mL (≈ 6.16 mM)
A549 cells [7]
  IC50: 2000 µg/mL (≈ 12.3 mM)
HS-683 cells [8]
  IC50: 2900 µg/mL (≈ 17.9 mM)
WI-38, A549 and HS 683
  IC50: > 1000 µg/mL
In vitro [9]
  CC50 at 48 h: 3000 µg/mL (≈ 18.5 mM)
In vitro [10]
  CC50 at 48 h: 4500 µg/mL (≈ 27.7 mM)
In vitro [11]
  CC50 at 48 h: 3500 µg/mL (≈ 21.6 mM)
In vitro [12]
  CC50 at 48 h: 7000 µg/mL (≈ 43.1 mM)
[13]
  half-life in the body: approximately two
[14]
  miscibility with water: miscible with water
  solubility in alcohol, ether or light petroleum: readily soluble
